Assay results reported in patent publication US5872141A, “Method of inhibiting cholesterol transport” (priority 1997, dated 1999).
Like-named read-outs stand apart in the source and are kept apart here. Each block holds one compound with its values, some of them ahead of it.

Tests used:
[1] = Uptake of micellar steroid from isolated duodenum into mucosal homogenate; format: in vivo, rat
Method: Fifty Wistar male rats were anesthetized with phenobarbital and a celiotomy was performed. The duodenum was isolated with ligatures of umbilical tape at the pylorus and the ligament of Treitz. One ml of a suspension of micelles containing ^3 H-cholesterol and ^14 C-sitosterol together with taurodeoxycholate (TDC) and dimyristic phosphatidyl choline (DMPC) (Safonova et al. 1994) were injected into the isolated duodenum of each rat. Following ten minutes incubation in the duodenum the gut loop was excised. The duodenum was opened lengthwise with iris scissors and mucosal contents were vigorously washed in two changes of 0.15M NaCl, 20 mM Hepes solution (pH 7.5). The mucosa was scraped free with a glass microscope slide and homogenized in a Virtis homogenizer for 5 minutes and 12 strokes in a Potter-Elvehjeim homogenizer as previously described (Conrad et al. 1993). […] Membranes were collected by centrifugation at 20,000×g for 20 minutes. Membrane proteins were extracted overnight at 4° C. in 1% Triton X 100 20 mM Hepes pH 7.5. The suspension was centrifuged at 20,000×g for 20 minutes. The solubilized material (70 ml) contained 70% of the radiolabeled cholesterol. The solubilized material was applied to a 240 ml column of DE-92 (Whatmann) equilibrated in 20 mM Hepes, 1% Triton X 100 pH 7.5 and eluted with a saline gradient. […]

IEC-6 cells [2] = assay: Specific steroid uptake from TDC-DMPC micelles by IEC-6 cells; format: cell-based, rat
Method: There was less than 15% variation between duplicates. Under these conditions of incubation the monolayer remained intact.
Referring to FIG. 1, monolayers on 12 well plates of IEC-6 cells were incubated for the indicated times at 37° C. with ^3 H-cholesterol (.circle-solid.), ^14 C-sitosterol (o), or ^3 H-cholesteryl oleate (.tangle-solidup.) in TDC-DMPC micelles as described above. The concentration (75 μM) and specific activity of the steroid was the same in all three conditions. After the desired incubation period, the media was removed, the monolayers were washed, the cells solubilized, and the amount of radioactivity incorporated into the cells was determined and plotted as counts per minute in the cells. […] At 60 minutes the cholesterol content of the cells was 2.7 times the sitosterol. Since sitosterol is closely related to cholesterol both chemically and physically, this indicated a biologically specific uptake. […] Thus, the IEC-6 cells were able to absorb specifically cholesterol from the mixed micelles.

alkaline phosphatase = settings: levamisole 58 mM, pH 8.5, 30 minutes at 37° C., IEC-6 homogenate, FIG. 2
Method: An incubation mixture of […] was prepared containing 0.1 ml of 500 mM Hepes pH 8.5, 25 mM MgCl2, 2.5 μM ZnCl2, and 0.5 ml of homogenate [1.0 mg/ml protein as determined by BCA method (Pierce, Rockford, Ill.)]. The indicated amount of p-nitrophenyl phosphate was added and the incubation allowed to proceed for 30 minutes at 37° C. To some of the tubes levamisole (58 mM) was added. After the incubation the absorption at 412 nm was determined.

IEC-6 cells [3] = settings: increasing concentrations of levamisole, 30 minutes at 37° C., FIG. 3
Method: Radioisotopes were obtained from NEN (Billerca, Mass.) and other chemicals from Sigma (St. Louis, Mo.). ^3 H-cholesterol micelles were prepared from dimyristic phosphatidyl choline (DMPC) and taurodeoxycholate (TDC) as described by others (Safanova et al. 1994). The final solution contained 2.2×10^6 cpm/ml, 0.1 μM cholesterol, 60 mM DMPC and 6.5 mM TDC. Micelles with ^14 C-sitosterol or ^3 H-cholesteryl oleate were similarly prepared using the appropriate steroid and had the same specific activity. IEC-6 cells (Quaroni et al. 1979) obtained from the American Type Culture Collection (12301 Parklawn Drive, Rockville, Md.) were grown to confluence on 12-well Corning tissue culture plates. The media was removed and the monolayers were washed with phosphate buffered saline containing calcium, magnesium, and glucose (PBS). One ml of PBS was added to each well and 40 μl of the micellar solution (for a final steroid concentration of 4 nM). After incubation at 37° C., the plates were chilled and the wells washed four times in cold PBS. Water (0.5 ml) was added, and the plates were sonicated for 15 minutes (Branson model B-220, Shelton, Conn.) and then washed in an additional 0.5 ml of water. The water lysates were combined and counted in Ready-Safe (Beckman, Fullerton, Calif.) scintillation fluid. There was less than 15% variation between duplicates. […]

IEC-6 cells [4] = settings: 32 mM levamisole, 60 minutes at 37° C., 20-60% sucrose gradient, FIG. 5
Method: Two petri dishes (7.5 cm) with monolayers of IEC-6 cells were grown to confluence and used for each experiment. Each plate was washed in PBS and then incubated with 3 ml of PBS containing 120 μl of cholesterol micelles. In two parallel petri dishes an identical incubation was performed but with the addition of 32 mM levamisole. After 60 minutes incubation the dishes were chilled, washed four times with cold PBS and then harvested by scraping the dishes into 8 ml of 10 mM Hepes, 10 mM NaCl pH 7.4. The cells were homogenized using a Tissue-Tearor (Biospec Products, Bartlettsville, Okla.) at full speed for 30 seconds×3. The homogenate was layered on top of a 26 ml linear sucrose gradient from 20-60% (w/w). Centrifugation was performed over 18-20 hours at 19,000 rpm with a S-20 rotor in a Sorvall RC28S (DuPont, Wilmington, Del.) centrifuge. The tubes were punched from the bottom and 1 ml fractions collected. Standard methods were used to identify the membrane fractions (Storrie & Madden 1990) utilizing p-nitrophenyl-sugars and spectrophotometric analysis.
Referring to FIG. 4, IEC-6 cells were incubated with ^3 H-cholesterol micelles for 60 minutes at 37° C., and then washed, homogenized, and separated on 20-60% sucrose gradients. The gradients were centrifuged to equilibrium. The location of various membrane fragments was determined by standard enzymatic methods (Storrie & Madden 1990). […]

- total uptake into the homogenate, % of added steroid ([1]; rat, in vivo, 10 min): 16%
- uptake by IEC-6 cells (IEC-6 cells [2]): linear for at least an hour
SMILES: CC(C)CCC[C@@H](C)[C@H]1CC[C@H]2[C@@H]3CC=C4C[C@@H](O)CC[C@]4(C)[C@H]3CC[C@]12C [cholesterol]

- uptake by IEC-6 cells (IEC-6 cells [2]): poorly absorbed
SMILES: CCCCCCCC/C=C\CCCCCCCC(=O)O[C@H]1CC[C@@]2(C)C(=CC[C@H]3[C@@H]4CC[C@H]([C@H](C)CCCC(C)C)[C@@]4(C)CC[C@@H]32)C1 [Cholesterol ester, cholesteryl oleate]

SMILES: CC[C@H](CC[C@@H](C)[C@H]1CC[C@H]2[C@@H]3CC=C4C[C@@H](O)CC[C@]4(C)[C@H]3CC[C@]12C)C(C)C [sitosterol]
- total uptake into the homogenate, % of added steroid ([1]; rat isolated duodenum, micelles with TDC and DMPC, ten minutes incubation): 2%
- uptake by IEC-6 cells (IEC-6 cells [2]; 37° C., TDC-DMPC micelles, FIG. 1, cholesterol ester without added pancreatic cholesterol esterase): incorporated much less efficiently

SMILES: c1ccc([C@H]2CN3CCSC3=N2)cc1 [levamisole, 2,3,5,6-tetrahydro-6-phenylimidazo-[2,1-b]thiazole]
- alkaline phosphatase activity inhibition (mode) (alkaline phosphatase): competitively inhibited
- effect of increasing drug concentration on cholesterol uptake (IEC-6 cells [3]): did not result in complete inhibition of uptake
- cholesterol uptake inhibited (IEC-6 cells [3]; maximal inhibition): Approximately 50%
- subcellular location of 3H-cholesterol label (IEC-6 cells [4]): majority of the label was found in the plasma membrane fraction (P)
